Test results as given in patent publication US9365615B2, “Cross-linked peptides containing non-peptide cross-linked structure, method for synthesizing cross-linked peptides, and novel organic compound used in method” (JITSUBO Co., Ltd., priority 2013, dated 2016).
*1 amine or outer side, *2 acyl side, *3 side chain or, on linkers, in order; H or OH if unused. Where a SMILES comes first, the peptide text is derived from it. Bridges are numbered along the chain shown (N, C = ends). X1 = O=C(C[*:2])[*:1]

Assays:
carboxy peptidase = assay: Resistance to peptidase: decomposition by carboxy peptidase (HPLC); assay type: in vitro ADME; conditions: isolated carboxy peptidase (SIGMA); 1 U/ml enzyme in PBS, 37° C., peptide 0.2 mg/ml; time at which half of the peptide was decomposed; read-out: half period by carboxy peptidase (t1/2)
Procedure: (§1) Resistance to a peptidase of a peptide of the present invention was investigated using a carboxy peptidase and chymotrypsin. Resistance to a peptidase was measured as described below.
A carboxy peptidase purchased from SIGMA was treated with PBS to prepare an enzyme solution of 1 U/ml, which was then kept warm at 37° C. in a water bath. Then, a peptide solution having a concentration adjusted to 5 mg/ml with DMSO: pure water=1:1 mixed solvent was treated with PBS(−) to obtain a concentration of 1 mg/ml, and the enzyme solution and the peptide solution were mixed at 4:1 so as to give a peptide final concentration of 0.2 mg/ml. Thereafter, these were reacted quickly at 37° C. With time, the reaction solution was sampled each in an amount of 0.1 ml, and a reaction stopping solution (25% TFA in acetonitrile, 20 μL) was added to stop the reaction. Samples were analyzed by HPLC, and decomposition of a peptide by the peptidase was measured. Sampling was conducted at 0, 0.5 minutes, 1 minute and 2 minutes, and when decomposition of […] or more was not obtained at 2 minutes, sampling was conducted further at 0.5 hours, 1 hour, 3 hours, additionally, sometimes at 6 hours, and for peptides stable for a long period, sampling was conducted in a range of 24 hours to 168 hours according to demands. Time at which half of the peptide added was decomposed was measured.

chymotrypsin = biological target: T1, chymotrypsin (Bos taurus, UniProt P00766); assay: Resistance to peptidase: decomposition by chymotrypsin (HPLC); assay type: in vitro ADME; conditions: isolated chymotrypsin (SIGMA), pH 8; 4 U/ml enzyme in 0.1M Tris-HCl (pH8.0), 37° C., peptide 0.2 mg/ml; time at which half of the peptide was decomposed; read-out: half period by chymotrypsin (t1/2)
T1 construct: purchased SIGMA
Procedure: as §1
Chymotrypsin purchased from SIGMA was treated with 0.1M Tris-HCl (pH8.0) to prepare an enzyme solution of 4 U/ml, which was then kept warm at 37° C. in a water bath. Then, a peptide solution treated with DMSO: pure water=1:1 to obtain a concentration of 5 mg/ml was treated with 0.1M Tris-HCl (pH8.0) to give a concentration of 1 mg/ml, and the enzyme solution and the peptide solution were mixed at 4:1 so as to give a peptide final concentration of 0.2 mg/ml. Thereafter, these were reacted quickly at 37° C. With time, the reaction solution was sampled each in an amount of 0.1 ml, and a reaction stopping solution (25% TFA in acetonitrile, 20 μL) was added to stop the reaction. Samples were analyzed by HPLC, and decomposition of a peptide by chymotrypsin was measured. Sampling was conducted at 0, 0.5 minutes, 1 minute and 2 minutes, and when decomposition of 50% or more was not obtained at 2 minutes, sampling was conducted further at 0.5 hours, 1 hour, 3 hours, and time at which half of the peptide added was decomposed was measured.

| SMILES | half-life at 0.2 mg/ml (carboxy peptidase) | half-life at 0.2 mg/ml (chymotrypsin) |
| --- | --- | --- |
| CC(C)C[C@@H]1NC(=O)[C@H](Cc2ccc(O)cc2)NC(=O)[C@H](CCC(N)=O)NC(=O)[C@H](CO)NC(=O)[C@H](Cc2c[nH]c3ccccc23)NC(=O)[C@@H](NC(=O)[C@@H](N)Cc2ccc(O)cc2)CCCCNC(=O)CSC[C@@H](C(=O)N[C@@H](Cc2ccc(O)cc2)C(=O)O)NC1=O [Comp. 1, reference compound] (H-YKWSQYLCY-OH; linker 2-8 via X1) | 0.72 min | 0.45 min |
| CC(C)C[C@@H]1NC(=O)[C@H](Cc2ccc(O)cc2)NC(=O)[C@H](CCC(N)=O)NC(=O)[C@H](CO)NC(=O)[C@H](Cc2c[nH]c3ccccc23)NC(=O)[C@@H](NC(=O)[C@@H](N)Cc2ccc(O)cc2)CSSC[C@@H](C(=O)N[C@@H](Cc2ccc(O)cc2)C(=O)O)NC1=O [STD, reference compound] | 0.45 min | 0.4 min |
| COCCOCCOCCOCCC(=O)N1CCCC[C@H](NC(=O)[C@@H](N)Cc2ccc(O)cc2)C(=O)N[C@@H](Cc2c[nH]c3ccccc23)C(=O)N[C@@H](CO)C(=O)N[C@@H](CCC(N)=O)C(=O)N[C@@H](Cc2ccc(O)cc2)C(=O)N[C@@H](CC(C)C)C(=O)N(CC(=O)N[C@@H](Cc2ccc(O)cc2)C(=O)O)CCCC1 [Bdev-29] | 15.7 min | 3.73 min |
| CC(=O)N1CCCC[C@@H](C(=O)N[C@@H](Cc2ccc(O)cc2)C(=O)O)NC(=O)[C@H](CC(C)C)NC(=O)[C@H](Cc2ccc(O)cc2)NC(=O)[C@H](CCC(N)=O)NC(=O)[C@H](CO)NC(=O)[C@H](Cc2c[nH]c3ccccc23)NC(=O)[C@@H](NC(=O)[C@@H](N)Cc2ccc(O)cc2)CCCC1 [Bdev-25] | 2.63 min | 1.85 min |
| COCCOCCOCCOCCOCCOCCOCCOCCC(=O)N1CCCC[C@H](NC(=O)[C@@H](N)Cc2ccc(O)cc2)C(=O)N[C@@H](Cc2c[nH]c3ccccc23)C(=O)N[C@@H](CO)C(=O)N[C@@H](CCC(N)=O)C(=O)N[C@@H](Cc2ccc(O)cc2)C(=O)N[C@@H](CC(C)C)C(=O)N(CC(=O)N[C@@H](Cc2ccc(O)cc2)C(=O)O)CCCC1 [Bdev-30] | 19.2 min | 3.66 min |

Next, values leading:

| half-life at 0.2 mg/ml (carboxy peptidase) | half-life at 0.2 mg/ml (chymotrypsin) | SMILES |
| --- | --- | --- |
| 3.34 min | 0.39 min | CC(=O)N[C@@H](Cc1ccc(O)cc1)C(=O)N[C@H]1CCCCN(C(C)=O)CCCCN(CC(=O)N[C@@H](Cc2ccc(O)cc2)C(=O)O)C(=O)[C@H](CC(C)C)NC(=O)[C@H](Cc2ccc(O)cc2)NC(=O)[C@H](CCC(N)=O)NC(=O)[C@H](CO)NC(=O)[C@H](Cc2c[nH]c3ccccc23)NC1=O [Bdev5] |
| 21.7 min | 2.9 min | CCCCC(=O)N1CCCC[C@H](NC(=O)[C@@H](N)Cc2ccc(O)cc2)C(=O)N[C@@H](Cc2c[nH]c3ccccc23)C(=O)N[C@@H](CO)C(=O)N[C@@H](CCC(N)=O)C(=O)N[C@@H](Cc2ccc(O)cc2)C(=O)N[C@@H](CC(C)C)C(=O)N(CC(=O)N[C@@H](Cc2ccc(O)cc2)C(=O)O)CCCC1 [Bdev-28] |
| 14.6 min | 0.95 min | CC(=O)N1CCCCN(CC(=O)N[C@@H](Cc2ccc(O)cc2)C(=O)O)C(=O)[C@H](CC(C)C)NC(=O)[C@H](Cc2ccc(O)cc2)NC(=O)[C@H](CCC(N)=O)NC(=O)[C@H](CO)NC(=O)[C@H](Cc2c[nH]c3ccccc23)NC(=O)CN(C(=O)[C@@H](N)Cc2ccc(O)cc2)CCCC1 [Bdev-21] |
| 18.7 min | 1.4 min | CC(=O)N1CCCC[C@H](NC(=O)[C@@H](N)Cc2ccc(O)cc2)C(=O)N[C@@H](Cc2c[nH]c3ccccc23)C(=O)N[C@@H](CO)C(=O)N[C@@H](CCC(N)=O)C(=O)N[C@@H](Cc2ccc(O)cc2)C(=O)N[C@@H](CC(C)C)C(=O)N(CC(=O)N[C@@H](Cc2ccc(O)cc2)C(=O)O)CCCC1 [Bdev2] |
| 2.79 min | 1.26 min | CC(C)C[C@@H]1NC(=O)[C@H](Cc2ccc(O)cc2)NC(=O)[C@H](CCC(N)=O)NC(=O)[C@H](CO)NC(=O)[C@H](Cc2c[nH]c3ccccc23)NC(=O)[C@@H](NC(=O)[C@@H](N)Cc2ccc(O)cc2)CCCCNCCCCN(CC(=O)N[C@@H](Cc2ccc(O)cc2)C(=O)O)C1=O [Bdev8] |
| 15 min | 4.37 min | CCC(=O)N1CCCC[C@H](NC(=O)[C@@H](N)Cc2ccc(O)cc2)C(=O)N[C@@H](Cc2c[nH]c3ccccc23)C(=O)N[C@@H](CO)C(=O)N[C@@H](CCC(N)=O)C(=O)N[C@@H](Cc2ccc(O)cc2)C(=O)N[C@@H](CC(C)C)C(=O)N(CC(=O)N[C@@H](Cc2ccc(O)cc2)C(=O)O)CCCC1 [Bdev-27] |
| 2.47 min | 2.09 min | CC(=O)N[C@@H](Cc1ccc(O)cc1)C(=O)N[C@H]1CCCCNCCCCN(CC(=O)N[C@@H](Cc2ccc(O)cc2)C(=O)O)C(=O)[C@H](CC(C)C)NC(=O)[C@H](Cc2ccc(O)cc2)NC(=O)[C@H](CCC(N)=O)NC(=O)[C@H](CO)NC(=O)[C@H](Cc2c[nH]c3ccccc23)NC1=O [Bdev6] |
